{
  "source": "patent US4087432A",
  "about": "“1H-imidazo(4,5-b)pyridine compounds” (Eli Lilly and Company, priority 1975, dated 1978)",
  "parameters_in_all_cases": "key: injury rating scale on which 4 = death",
  "key": {"Cotton": {"tested_on": "Cotton", "experiment": "Preemergent injury rating, cotton", "format": "in vivo", "experimental": "(§1) Various of the compounds to be employed as active agent in accordance with the present invention were evaluated for preemergent application to various species of plants. In this evaluation, a soil was prepared consisting of one part masonry sand and one part shredded top soil blended together in a cement mixer. One gallon of this soil was placed in a 25 × 35 cm. galvanized flat and was patted down with a bench brush until level. A three-row marker was used to make 21/2 cm. deep furrows in approximately two-fifths of the flat. Crop seeds consisting of four kernels of corn, five cotton seeds and five soybean seeds were placed in these furrows. A four-row template was then placed on the remaining soil and the indicated approximate numbers of each of the following seeds were planted, one species to each section: foxtail (millet), 80-100 seeds; velvetleaf (40-50 seeds); rough pigweed (150-250 seeds); and large crabgrass (100-150 seeds).\n(§2) Sufficient soil was added to cover the entire flat. Thus, the weed seeds were covered to a depth of about 6 mm. and the crop seeds were covered to a depth of about 3 cm.\n(§3) In assaying the effect of the composition as preemergent herbicides, a flat prepared as above, taken either on the day of planting or on the next day, was placed in a chamber equipped with a turntable and an air exhaust. The herbicidal composition, either a spray-type emulsion or a wettable powder, was applied to the flat with a modified DeVilbiss atomizer hooked to an air source. Twelve and one-half milliliters of the composition under test were applied to each flat either on the day of planting or the succeeding day. Injury ratings and observations as to type of injury were made eleven to twelve days after treatment. The injury rating scale used was as follows:\n(§4) 4--death When more than one determination was carried out at a given rate, an average value was calculated for the injury rating. Each compound evaluated was formulated as a spray by one of the following procedures. In one method the particular compound was wetted by grinding in a mortar with one part of polyoxyethylene sorbitan monolaurate. Five hundred parts of water were added slowly to the resultant creamy paste to give an aqueous dispersion with a surfactant concentration of 0.2 percent. This dispersion was entirely satisfactory for spray application. In a second procedure the compound was dissolved in one volume of acetone, and the acetone solution was diluted with nineteen volumes of water containing 0.1 percent of polyoxyethylene sorbitan monolaurate.\n(§5) In the following table setting forth the results of the evaluation, column 1 gives the name of the compound under test; column 2, the rate in pounds per acre at which the compound was applied to the test flat; and the remaining columns, the injury to the particular plant seeds or seedlings as measured by the foregoing scale."}, "Crabgrass": {"tested_on": "Crabgrass", "experiment": "Preemergent injury rating, crabgrass", "format": "in vivo, large crabgrass", "experimental": "as §1, §2, §3, §4, §5"}, "Corn": {"tested_on": "Corn", "experiment": "Preemergent injury rating, corn", "format": "in vivo", "experimental": "as §1, §2, §3, §4, §5"}, "Foxtail": {"tested_on": "Foxtail", "experiment": "Preemergent injury rating, foxtail", "format": "in vivo, foxtail (millet)", "experimental": "as §1, §2, §3, §4, §5"}, "Pigweed": {"tested_on": "Pigweed", "experiment": "Preemergent injury rating, pigweed", "format": "in vivo, rough pigweed", "experimental": "as §1, §2, §3, §4, §5"}, "Soybean": {"tested_on": "Soybean", "experiment": "Preemergent injury rating, soybean", "format": "in vivo", "experimental": "as §1, §2, §3, §4, §5"}, "Velvet Leaf": {"tested_on": "Velvet Leaf", "experiment": "Preemergent injury rating, velvetleaf", "format": "in vivo", "experimental": "as §1, §2, §3, §4, §5"}},
  "data": [
    {"smiles": "On1c(C(F)(F)C(F)F)nc2nc(Cl)c(Cl)cc21", "note": "[1-hydroxy-5,6-dichloro-2-(1,1,2,2-tetrafluoroethyl)-1H-imidazo(4,5-b)pyridine]", "values": [
      {"measurement": "Injury Rating, Cotton", "setting": "Cotton; 1 lbs/acre", "result": 0},
      {"measurement": "Injury Rating, Cotton", "setting": "Cotton; 2 lbs/acre", "result": 0},
      {"measurement": "Injury Rating, Cotton", "setting": "Cotton; 4 lbs/acre", "result": 0},
      {"measurement": "Injury Rating, Crabgrass", "setting": "Crabgrass; 1 lbs/acre", "result": 0},
      {"measurement": "Injury Rating, Crabgrass", "setting": "Crabgrass; 2 lbs/acre", "result": 1, "unit": "BS"},
      {"measurement": "Injury Rating, Crabgrass", "setting": "Crabgrass; 4 lbs/acre", "result": 2, "unit": "BS"},
      {"measurement": "Injury Rating, Crabgrass", "setting": "Crabgrass; 8 lbs/acre", "result": 2, "unit": "B"},
      {"measurement": "Injury Rating, Corn", "setting": "Corn; 1 lbs/acre", "result": 0},
      {"measurement": "Injury Rating, Corn", "setting": "Corn; 2 lbs/acre", "result": 0},
      {"measurement": "Injury Rating, Corn", "setting": "Corn; 4 lbs/acre", "result": 0},
      {"measurement": "Injury Rating, Corn", "setting": "Corn; 8 lbs/acre", "result": 0},
      {"measurement": "Injury Rating, Foxtail", "setting": "Foxtail; 1 lbs/acre", "result": 0},
      {"measurement": "Injury Rating, Foxtail", "setting": "Foxtail; 2 lbs/acre", "result": 0},
      {"measurement": "Injury Rating, Foxtail", "setting": "Foxtail; 4 lbs/acre", "result": 1, "unit": "BS"},
      {"measurement": "Injury Rating, Foxtail", "setting": "Foxtail; 8 lbs/acre", "result": 1, "unit": "S"},
      {"measurement": "Injury Rating, Pigweed", "setting": "Pigweed; 1 lbs/acre", "result": 1, "unit": "S"},
      {"measurement": "Injury Rating, Pigweed", "setting": "Pigweed; 2 lbs/acre", "result": 3, "unit": "BS"},
      {"measurement": "Injury Rating, Pigweed", "setting": "Pigweed; 4 lbs/acre", "result": 3, "unit": "BS"},
      {"measurement": "Injury Rating, Pigweed", "setting": "Pigweed; 8 lbs/acre", "result": 3, "unit": "BS"},
      {"measurement": "Injury Rating, Soybean", "setting": "Soybean; 1 lbs/acre", "result": 0},
      {"measurement": "Injury Rating, Soybean", "setting": "Soybean; 2 lbs/acre", "result": 0},
      {"measurement": "Injury Rating, Soybean", "setting": "Soybean; 4 lbs/acre", "result": 1, "unit": "B"},
      {"measurement": "Injury Rating, Velvet Leaf", "setting": "Velvet Leaf; 1 lbs/acre", "result": 0},
      {"measurement": "Injury Rating, Velvet Leaf", "setting": "Velvet Leaf; 2 lbs/acre", "result": 1, "unit": "B"},
      {"measurement": "Injury Rating, Velvet Leaf", "setting": "Velvet Leaf; 4 lbs/acre", "result": 1, "unit": "B"},
      {"measurement": "Injury Rating, Velvet Leaf", "setting": "Velvet Leaf; 8 lbs/acre", "result": 3, "unit": "B"}
    ]},
    {"smiles": "On1c(C(F)(F)F)nc2nc(Cl)ccc21", "note": "[5-chloro-1-hydroxy-2-(trifluoromethyl)-1H-imidazo(4,5-b)pyridine]", "values": [
      {"measurement": "Injury Rating, Cotton", "setting": "Cotton; 2 lbs/acre", "result": 0},
      {"measurement": "Injury Rating, Crabgrass", "setting": "Crabgrass; 2 lbs/acre", "result": 3},
      {"measurement": "Injury Rating, Crabgrass", "setting": "Crabgrass; 8 lbs/acre", "result": 3},
      {"measurement": "Injury Rating, Corn", "setting": "Corn; 2 lbs/acre", "result": 0},
      {"measurement": "Injury Rating, Corn", "setting": "Corn; 8 lbs/acre", "result": 1},
      {"measurement": "Injury Rating, Foxtail", "setting": "Foxtail; 2 lbs/acre", "result": 2},
      {"measurement": "Injury Rating, Foxtail", "setting": "Foxtail; 8 lbs/acre", "result": 4},
      {"measurement": "Injury Rating, Pigweed", "setting": "Pigweed; 2 lbs/acre", "result": 3},
      {"measurement": "Injury Rating, Pigweed", "setting": "Pigweed; 8 lbs/acre", "result": 3},
      {"measurement": "Injury Rating, Soybean", "setting": "Soybean; 2 lbs/acre", "result": 0}
    ]}
  ]
}
